# Test system: HeLa cells
# Test: HeLa cell colony cytotoxicity / growth inhibition test
# Assay type: cell-based, human
# Settings: 8 days, 0-50 μg/ml
# Method: HeLa cells were seeded in 24-well tissue culture plates at a concentration of 30 cells per well in 1 ml of growth medium (Eagle's minimum essential medium with 5 percent HIFCS). The plates were incubated at 36° C. for 24 hours after which the growth medium was removed. The cells were resuspended in 1 ml of fresh growth medium described above together with a measured quantity of (0-50 μg/ml) of one of the compounds of this invention. The 0 μg/ml concentration served as a control. The tissue culture plates were then incubated at 36° C. for 8 days at which time the medium was removed and the cells were fixed and stained with 0.1% crystal violet in 20% ethanol. The HeLa cell colonies were counted macroscopically, and comparisons of colony size in treated and control wells were made. Test compounds were considered cytotoxic at concentrations which reduced the number of HeLa cell colonies compared to control by 50% or more. Test compounds of the invention were considered to cause HeLa cell growth inhibition at concentrations which reduced the size of colonies by a measurable amount when compared to control.
row,SMILES,Cell Growth Inhibition: concentration at which the size of the HeLa colonies were reduced by a measurable amount (as compared to control) [µg/mL]
1,"CNC(=O)ON(C(=O)NC)S(C)(=O)=O [Example 30, N-((Methylamino)carbonyl)-N-(((methyl-amino)carbonyl)oxy)methanesulfamide]",3.1
2,"CCNC(=O)ON(C(=O)CC)C(=O)NCC [Example 5, N-((ethylamino)carbonyl)-N-(((ethylamino)-carbonyl)oxy)propionamide]",50
3,"O=C(Nc1ccccc1)ON(C(=O)Nc1ccccc1)C(=O)c1ccccc1 [Example 20, N-((Phenylamino)carbonyl)-N-(((phenyl-amino)carbonyl)oxy)benzamide]",50
4,"CCCNC(=O)ON(C(C)=O)C(=O)NCCC [Example 9, N-((Propylamino)carbonyl)-N-(((propylamino)carbonyl)oxy)acetamide]",6.3
5,"CCCCNC(=O)ON(C(=O)NCCCC)C(=O)c1ccccc1 [Example 18, N-((Butylamino)carbonyl)-N-(((butylamino)-carbonyl)oxy)benzamide]",0.8
6,"CNC(=O)ON(C(=O)NC)C(=O)C(C)(C)C [Example 6, N-((Methylamino)carbonyl)-N-(((methylamino)-carbonyl)oxy)(2,2-dimethyl)propionamide]",12.5
7,"CC(=O)N(OC(=O)NC(C)C)C(=O)NC(C)C [Example 8, N-(((1-Methylethyl)amino)carbonyl)-N-((((1-methylethyl)amino)carbonyl)oxy)acetamide]",1.6
8,"CC(C)NC(=O)ON(C(=O)NC(C)C)C(=O)c1ccccc1 [Example 14, N-(((1-Methylethyl)amino)carbonyl)-N-((((1-methylethyl)amino)carbonyl)oxy)benzamide]",0.8
9,"CCC(=O)N(OC(=O)NC)C(=O)NC [Example 4, N-((methylamino)carbonyl)-N-(((methyl-amino)carbonyl)oxy)propionamide]",12.5
10,"CC(=O)N(OC(=O)NC1CCCCC1)C(=O)NC1CCCCC1 [Example 7, N-((Cyclohexylamino)carbonyl)-N-(((cyclohexylamino)carbonyl)oxy)acetamide]",1.6
11,"CCCCNC(=O)ON(C(=O)NCCCC)C(=O)C1CC1 [Example 26, N-((Butylamino)carbonyl)-N-(((butylamino)carbonyl)oxy)cyclopropanecarboxamide]",12.5
12,"CNC(=O)ON(C(=O)NC)C(=O)c1ccccc1 [Example 15, N-((Methylamino)carbonyl)-N-(((methylamino)-carbonyl)oxy)benzamide]",3.1
13,"CCCNC(=O)ON(C(=O)NCCC)C(=O)c1ccccc1 [Example 17, N-((Propylamino)carbonyl)-N-(((propylamino)-carbonyl)oxy)benzamide]",12.5
14,"CC(C)NC(=O)ON(C(=O)NC(C)C)C(=O)C1CC1 [Example 25, N-(((1-Methylethyl)amino)carbonyl)-N-((((1-methylethyl)amino)carbonyl)oxy)cyclopropanecarboxamide]",3.1
15,"O=C(NC1CCCCC1)ON(C(=O)NC1CCCCC1)C(=O)C1CC1 [Example 29, N-((Cyclohexylamino)carbonyl)-N-(((cyclohexylamino)carbonyl)oxy)cyclopropanecarboxamide]",12.5
16,"CC(C)(C)NC(=O)ON(C(=O)NC(C)(C)C)C(=O)C1CC1 [Example 27, N-(((1,1-Dimethylethyl)amino)carbonyl)-N-((((1,1-dimethylethyl)amino)carbonyl)oxy)cyclopropanecarboxamide]",50
17,"CC(=O)N(OC(=O)Nc1ccc(C)cc1)C(=O)Nc1ccc(C)cc1 [Example 12, N-(((4-Methylphenyl)amino)carbonyl)-N-((((4-methylphenyl)amino)carbonyl)oxy)acetamide]",12.5
18,"CC(=O)N(OC(=O)NC(C)(C)C)C(=O)NC(C)(C)C [Example 3, N-(((1,1-dimethylethyl)amino)carbonyl)-N-((((1,1-dimethylethyl)amino)carbonyl)oxy)acetamide]",12.5
19,"CCNC(=O)ON(C(=O)NCC)C(=O)c1ccccc1 [Example 16, N-((Ethylamino)carbonyl)-N-(((ethylamino)-carbonyl)oxy)benzamide]",12.5
20,"CC(C)(C)NC(=O)ON(C(=O)NC(C)(C)C)C(=O)c1ccccc1 [Example 19, N-(((1,1-Dimethylethyl)amino)carbonyl)-N-((((1,1-dimethylethyl)amino)carbonyl)oxy)benzamide]",50
21,"CCCNC(=O)ON(C(=O)NCCC)C(=O)C1CC1 [Example 22, N-((Propylamino)carbonyl)-N-(((propyl-amino)carbonyl)oxy)cyclopropanecarboxamide]",3.1
22,"CCNC(=O)ON(C(C)=O)C(=O)NCC [Example 2, N-((Ethylamino)carbonyl)-N-(((ethylamino)-carbonyl)oxy)acetamide]",12.5
23,"CCCCNC(=O)ON(C(C)=O)C(=O)NCCCC [Example 13, N-((Butylamino)carbonyl)-N-(((butylamino)carbonyl)oxy)acetamide]",3.1
24,"CC(=O)N(OC(=O)Nc1cccc(C)c1)C(=O)Nc1cccc(C)c1 [Example 11, N-(((3-methylphenyl)amino)carbonyl)-N-((((3-methylphenyl)amino)carbonyl)oxy)acetamide]",50
25,"CC(=O)N(OC(=O)Nc1ccccc1)C(=O)Nc1ccccc1 [Example 10, N-((Phenylamino)carbonyl)-N-(((phenylamino)carbonyl)oxy)acetamide]",50
26,"CCNC(=O)ON(C(=O)NCC)S(C)(=O)=O [Example 31, N-((Ethylamino)carbonyl)-N-(((ethylamino)-carbonyl)oxy)-methanesulfamide]",3.1
27,"O=C(Nc1ccccc1)ON(C(=O)Nc1ccccc1)C(=O)C1CC1 [Example 28, N-((Phenylamino)carbonyl)-N-(((phenylamino)carbonyl)oxy)cyclopropanecarboxamide]",50
28,"CNC(=O)ON(C(=O)NC)C(=O)C1CC1 [Example 23, N-((Methylamino)carbonyl)-N-(((methylamino)carbonyl)oxy)cyclopropanecarboxamide]",12.5
29,"CCNC(=O)ON(C(=O)NCC)C(=O)C1CC1 [Example 24, N-((Ethylamino)carbonyl)-N-(((ethylamino)carbonyl)oxy)cyclopropanecarboxamide]",3.1

# From US4413009A, “N-((Alkylamino)carbonyl)-N-(((alkylamino)carbonyl)oxy)acylamides with antineoplastic activity” (priority 1982, dated 1983)
